Reference: patent US20260207600A1, “METHODS OF TREATMENT WITH MYOSIN MODULATOR” (MYOKARDIA, INC., priority 2019, published 2026)
Values after ≈ are worked out from the molar mass of the structure shown.

Experiments:
[1] = test system: isolated adult rat ventricular myocytes; assay: Counteraction of mavacamten effects by isoproterenol in isolated myocytes in vitro; format: cell-based
Source text: Additional supportive measures, e.g., intravenous volume supplementation and/or the use of arterial vasoconstrictor agents (a adrenergic agonists) may complement the use of a β adrenergic agonist.

[2] = test system: participants with symptomatic oHCM; assay: EXPLORER-HCM Phase 3 double blind, randomized, placebo controlled study; format: in vivo, human
Source text: A subset of participants consented to participate in a CMR substudy at selected sites. Randomization was stratified according to NYHA functional classification (II or III), current treatment with β-blocker (yes or no), planned type of ergometer used during the study (treadmill or exercise bicycle), and consent for the CMR substudy (yes or no).
The study included 3 periods carried out according to the following design:
1) Screening period (Day −35 to Day −1): Participants will undergo a variety of general, cardiopulmonary, laboratory, symptom, and PRO assessments over 1 to 2 days in order to assess eligibility. Key Screening tests include electrocardiogram (ECG); transthoracic echocardiography (TTE) conducted at rest, with Valsalva maneuver, and post-exercise; as well as cardiopulmonary exercise testing (CPET). The following screening assessments may be repeated, as long as within the 35-days screening window: blood tests, ECG, and/or TTE. Repeat assessments are allowed if central core labs require a repeat submission due to quality and in order to better assess inclusion/exclusion values. Participants who screen fail may be considered for rescreening based on the investigator's discretion, taking into consideration the reason(s) for screen fail. One attempt at rescreening will be allowed, and all procedures must be repeated.
2) Double-blind treatment period (Day 1 [randomization] to Week 30/end of treatment [EOT]): The double-blind treatment period will include a two-step dose titration scheme designed to achieve safe and effective dosing for each participant based on their own response parameters. […] Subsequently, assessments including ECG, PK (trough plasma concentrations), and TTE will be performed at each of 7 study visits, beginning at Week 4, and read by core laboratories. At Week 8 and Week 14, the dose may be increased, decreased, or remain unchanged based upon results of Week 6 and Week 12 assessments, respectively, and based primarily on measurements of provoked left ventricular outflow tract (LVOT) gradient and bounded by a target plasma concentration (PK) range and clinical tolerability (LVEF). At Week 8, the dose may be increased to a maximum daily dose of 10 mg (ie, increase from 5 mg QD to 10 mg QD), and at Week 14 to a maximum daily dose of 15 mg (ie, increase from 10 mg QD to 15 mg QD). Dose increases are designed to be step wise and are not allowed to skip doses (eg, from 5 mg to 15 mg).
At Week 30/EOT, participants will complete CPET and post-exercise TTE. For any participants permanently discontinuing treatment prior to Week 30, an early termination (ET) visit should be conducted as soon as possible, including CPET and post-exercise TTE. Participants with ET will also be encouraged to complete all remaining study visits and assessments, including the Week 30 visit.
3) Posttreatment follow-up period (Week 30/EOT to Week 38/end of study [EOS]): When double-blind treatment ends at Week 30, participants will be contacted by phone at Week 34 and return to the site at Week 38 for an EOS visit. At the EOS visit, specified assessments will be repeated. This posttreatment follow-up period applies only to participants who are receiving study drug after Week 22.
To maintain safety throughout the double-blind treatment period, a clinic visit will occur every 2 to 4 weeks, beginning at Week 4 for an initial evaluation of clinical tolerability and safety. Clinic visits will include but are not limited to clinical evaluation (symptoms, PRO evaluations, adverse event [AE]/serious adverse event [SAE] assessment), ECGs, PK sample, TTEs, and laboratory assessments. Results of TTE performed by study site sonographers at each scheduled visit following randomization should be kept blinded to the investigator and other study site personnel. […]

CYP3A4/5 = assay: In vitro contribution of CYP enzymes to mavacamten metabolism; format: in vitro ADME
[3] = API thermodynamic solubility; format: physicochemical; conditions: thermodynamic from solid
[4] = Mavacamten arm (n = 123), baseline to Week 30
[5] = Mavacamten arm, defined as NYHA Class I and all LVOT gradients <30 mmHg
[6] = change from baseline to Week 30, p <0.0001

With `CC(C)n1c(=O)cc(N[C@@H](C)c2ccccc2)[nH]c1=O` [mavacamten, (S)-3-Isopropyl-6-((1-phenylethyl)amino)pyrimidine-2, 4(1H,3H)-dione] the “Reversal of pharmacologic effects by β adrenergic agonist” value [1] was “can be counteracted by β adrenergic agonists”, the “subjects with severe TEAEs” value ([2]; 7 subjects, placebo 10.2%) was 5.7% and the “Response Type 1 (pVO2 ≥1.5 ml/kg/min and NYHA improved ≥1), n (%)” value ([2]; Mavacamten (n = 123)) was 41 (33.3) n (%). For the same compound, the “Response Type 2 (pVO2 ≥3.0 ml/kg/min and no worsening NYHA), n (%)” value ([2]; Mavacamten (n = 123)) was 29 (23.6) n (%), the “pVO2 ≥3.0 and NYHA ≥1, n (%)” value ([2]; Mavacamten (n = 123)) was 25 (20.3) n (%) and the “Met Composite Functional Response, either type, n (%)” value ([2]; Mavacamten (n = 123), Week 30) was 45 (36.6) n (%). The “Absence of MR (mitral regurgitation), (%)” value ([2]; Mavacamten arm) was “(9.0) %”, the “Absence of MR (mitral regurgitation), n/assessible” value ([2]; Mavacamten arm) was 10/111 and the “Absence of SAM (systolic anterior motion of mitral valve), (%)” value ([2]; Mavacamten arm) was “(80.9) %”. The “Absence of SAM (systolic anterior motion of mitral valve), n/assessible” value ([2]; Mavacamten arm) was 76/94, the “participants with a temporary discontinuation associated with reduced ejection fraction” value ([2]; Mavacamten arm) was 3 and the “HCMSQ-SoB score, change from baseline, mean (SD)” value [2, 4] was −2.82 (2.7). For the same compound, the “KCCQ-CSS, change from baseline, mean (SD)” value [2, 4] was 13.6 (14.4), the “KCCQ-OSS, change from baseline, mean (SD)” value [2, 4] was 14.87 (15.8) and the “KCCQ-total symptom score, change from baseline, mean (SD)” value [2, 4] was 12.44 (15.0). For the same compound, the “NYHA improved ≥1 Class, n (%)” value [2, 4] was 80 (65) n (%), the “Post-exercise LVOT peak gradient, change from baseline, mean (SD)” value [2, 4] was −47.2 (40.3) mmHg and the “pVO2, change from baseline, mean (SD)” value [2, 4] was 1.4 (3.1) mL/kg/min. The “Post-exercise LVOT peak gradient < 30 mmHg, (%)” value ([2]; Mavacamten arm, Week 30) was “(56.6) %”, the “Post-exercise LVOT peak gradient < 30 mmHg, n/assessible” value ([2]; Mavacamten arm, Week 30) was 64/113 and the “Post-exercise LVOT peak gradient < 50 mmHg, (%)” value ([2]; Mavacamten arm, Week 30) was “(74.3) %”. For the same compound, the “Post-exercise LVOT peak gradient < 50 mmHg, n/assessible” value ([2]; Mavacamten arm, Week 30) was 75/101, the “Complete Response, (%)” value [2, 5] was “(27.4) %” and the “Complete Response, n/assessible” value [2, 5] was 32/117. For the same compound, the “Met Composite Functional Response, either type” value ([2]; Mavacamten vs Placebo) was 19.4, the “Response Type 1” value ([2]; Mavacamten vs Placebo) was 19.3 and the “Response Type 2” value ([2]; Mavacamten vs Placebo) was 12.6. The “pVO2 ≥3.0 and NYHA ≥1” value ([2]; Mavacamten vs Placebo) was 12.5, the “Complete Response, Mava vs Placebo Difference (95% CI)” value ([2]; NYHA Class I and all LVOT gradients <30 mmHg, p <0.0001) was 26.6 (18.3, 34.8) and the “NT-proBNP Mava vs Placebo Model Est RR” value ([2]; Week 30, 95% CI (0.169, 0.241), p <0.0001) was 0.202. The “hs-cTnI Mava vs Placebo Model Est RR” value ([2]; Week 30, 95% CI (0.500, 0.693), p <0.0001) was 0.589, the “Post-exercise LVOT peak gradient < 30 mmHg, Mava vs Placebo Difference (95% CI)” value ([2]; Week 30, p <0.0001) was 49.6 (39.3, 59.8) and the “Post-exercise LVOT peak gradient < 50 mmHg, Mava vs Placebo Difference (95% CI)” value ([2]; Week 30, p <0.0001) was 53.5 (42.0. 65.0). For the same compound, the “NYHA improved ≥1 Class, Mavacamten vs Placebo Difference (95% CI)” value ([2]; baseline to Week 30, p <0.0001) was 33.8 (22.1, 45.4) <0.0001, the “KCCQ-total symptom score, Mavacamten vs Placebo Difference (95% CI)” value ([2]; change from baseline to Week 30, p 0.0002) was 7.60 (3.68, 11.52) 0.0002 and the “pVO2, Mavacamten vs Placebo Difference (95% CI)” value ([2]; change from baseline to Week 30, p 0.0006) was 1.35 (0.580, 2.116) 0.0006 mL/kg/min. The “HCMSQ-SoB score, Mavacamten vs Placebo Difference (95% CI)” value [2, 6] was −1.8 (−2.402, −1.196) <0.0001, the “KCCQ-CSS, Mavacamten vs Placebo Difference (95% CI)” value [2, 6] was 9.1 (5.46, 12.66) <0.0001 and the “KCCQ-OSS, Mavacamten vs Placebo Difference (95% CI)” value [2, 6] was 9.12 (5.46, 12.80) <0.0001. For the same compound, the “Post-exercise LVOT peak gradient, Mavacamten vs Placebo Difference (95% CI)” value [2, 6] was −35.5 (−43.1, −27.9) <0.0001 mmHg, the Tolerability ([2]; doses ranging from 2.5 to 15 mg) was “well tolerated” and the “patients meeting the primary efficacy endpoint (composite functional response)” value ([2]; intent-to-treat, 45 of the 123 patients) was 36.6%. The “permanent treatment discontinuations due to adverse events” value ([2]; on mavacamten (atrial fibrillation, syncope)) was 2, the “Absence of MR, Mava vs Placebo Difference (95% CI)” value ([2]; p 0.0006) was 9.0 (3.7, 14.3) and the “Absence of SAM, Mava vs Placebo Difference (95% CI)” value ([2]; p <0.0001) was 46.9 (34.5, 59.2). The temporary discontinuations ([2]; patients on mavacamten (all at a 5 mg dose)) was 8, the “patients achieving a complete response (NYHA 1 and all LVOT gradients below 30 mmHg)” value ([2]; placebo 1%) was 27% and the “patients with cardiac SAEs” value ([2]; placebo 4) was 4. The “patients achieving a post-exercise LVOT peak gradient below 30 mmHg” value ([2]; placebo 7%) was 57%, the “number of SAEs” value ([2]; placebo 20) was 12 and the “patients achieving NYHA class I status” value ([2]; placebo 21%) was 65%. The “subjects experiencing SAEs” value ([2]; through week 30, 10 subjects) was 8.1%, the “percent contribution to the metabolism of mavacamten” value (CYP3A4/5) was 18% and the solubility thermodynamic ([3]; DCM, organic solvent or mixture) was 1100 µg/mL (≈ 4.02 mM). For the same compound, the solubility thermodynamic ([3]; DMF, organic solvent or mixture) was ~130000 µg/mL (≈ 476 mM), the solubility thermodynamic ([3]; DMSO, organic solvent or mixture) was > 150000 µg/mL and the solubility thermodynamic ([3]; EtOAc, organic solvent or mixture) was 1000 µg/mL (≈ 3.66 mM). The solubility thermodynamic ([3]; EtOH, organic solvent or mixture) was 7400 µg/mL (≈ 27.1 mM), the solubility thermodynamic ([3]; NMP, organic solvent or mixture) was > 150000 µg/mL and the solubility thermodynamic ([3]; acetone, organic solvent or mixture) was 3300 µg/mL (≈ 12.1 mM). For the same compound, the solubility thermodynamic ([3]; acetonitrile, organic solvent or mixture) was 900 µg/mL (≈ 3.29 mM), the solubility thermodynamic ([3]; diethyl ether, organic solvent or mixture) was 50 µg/mL (≈ 0.183 mM) and the solubility thermodynamic ([3]; hexanes, organic solvent or mixture) was < 10 µg/mL. For the same compound, the solubility thermodynamic ([3]; n-heptanes, organic solvent or mixture) was < 10 µg/mL, the solubility thermodynamic ([3]; n-hexane, organic solvent or mixture) was < 10 µg/mL and the solubility thermodynamic ([3]; p-dioxane, organic solvent or mixture) was 1200 µg/mL (≈ 4.39 mM). For the same compound, the solubility thermodynamic ([3]; water) was 10 µg/mL (≈ 0.0366 mM).
